Source: US4062862A, “5-Benzyl-2-oxazolidone derivatives and a process for producing the same” (Nippon Chemiphar Co., Ltd., priority 1975, dated 1977)

Tests used:
[1] = system: carrageenan-induced edema in rats; test: Antiinflammatory effect on carrageenan-induced edema; type: in vivo, Wistar male rats
Description: […] One hour after the administration of the test compounds, the hind paw was given a subcutaneous injection of 0.05ml of 0.5% carrageenan saline solution, and volume of the hind paw was measured at 1, 2, 3, 4, 5 and 6 hours after the injection of carrageenan by a volume differential meter. Inhibitory percent was calculated based on the swelling in the control. Phenybutazone was used as active placebo.

[2] = system: mice; test: Muscular relaxing effect, Rotarod Method (R.R), oral, mice; type: in vivo, dd Male mice; settings: Mus musculus; for responders at 500 mg/kg: read-out: Inhibition percent of the central muscular relaxing effect, R.R (Rotarod Method)
Description: (§1) dd Male mice weighing 18 to 22 g, one group consisting of 10 animals, were orally given the compounds (I) to (V) as indicated below suspended in 0.2% carboxymethylcellulose solution in a dose of 0.25ml/10g-body weight. Mephenesin was used as active placebo.
Mice were placed on Rotar Load (made by Natsume Seisakusho Co., Ltd.) having a diameter of 3 cm rotating at a speed of 10 rpm and falling (occurring within 3 minutes) was observed.

[3] = system: mice; test: Muscular relaxing effect, Righting Reflex Test (R.r), oral, mice; type: in vivo, dd Male mice; settings: Mus musculus; for responders at 500 mg/kg: read-out: Inhibition percent of the central muscular relaxing effect, R.r (Righting Reflex Test)
Description: as §1

[4] = system: mice; test: Muscular relaxing effect, Traction Test (T.T), oral, mice; type: in vivo, dd Male mice; settings: Mus musculus; for responders at 500 mg/kg: read-out: Inhibition percent of the central muscular relaxing effect, T.T (Traction Test)
Description: as §1

[5] = system: mice; test: Muscular relaxing effect, Pinna Reflex Test (P.r), oral, mice; type: in vivo, dd Male mice; settings: Mus musculus; for responders at 500 mg/kg: read-out: Inhibition percent of the central muscular relaxing effect, P.r (Pinna Reflex Test)
Description: as §1
Pinna reflex was observed by using mandolin wire for 1/4 injection syringe.

[6] = system: mice; test: Muscular relaxing effect, Inclined Plane Test (I.P), oral, mice; type: in vivo, dd Male mice; settings: Mus musculus; for responders at 500 mg/kg: read-out: Inhibition percent of the central muscular relaxing effect, I.P (Inclined Plane Test)
Description: as §1
Mice were placed on veneer inclined at an angle of 30° and on wire-netting inclined at an angle of 60° of which one division is 5 mm square, and mice sliding down were observed as positive, in comparison with normal behavior.

[7] = system: mice; test: Muscular relaxing effect, Corneal Reflex Test (C.r), oral, mice; type: in vivo, dd Male mice; settings: Mus musculus; for responders at 500 mg/kg: read-out: Inhibition percent of the central muscular relaxing effect, C.r (Corneal Reflex Test)
Description: as §1
Corneal reflex was observed by using mandolin wire for 1/4 injection syringe.

[8] = system: pain threshold in mice; test: Analgetic effect, Pressure Test (pain threshold, tail pressure); type: in vivo, dd Male mice; settings: 100 mg/kg oral; for Pain threshold, Mean ± SE, 30 min / Pain threshold, Mean ± SE, 60 min / Pain threshold, Mean ± SE, 90 min / Pain threshold, Mean ± SE, 120 min: *p <0.05, **p <0.01, ***p <0.001
Description: dd Male mice weighing 18 to 22 g (pain threshold ranging within 30 to 50 mmHg), one group consisting of 10 animals, were given orally the test compounds suspended in 0.2% carboxymethylcellulose solution in a dose of 100mg/kg-body weight. Pain threshold were measured at 30, 60, 90 and 120 minutes after the administration of the test compounds while pain reaction occurring by application of pressure on tails of animals was referred to as indication. Aminopyrine was used as active placebo.

[9] = Table 1, oral, mice, maximum response 15-180 min, Litchfield Wilcoxon

Structure (SMILES)	Inhibitory per cent, carrageenan-induced edema, 1 hr ([1]; Table 6, 100 mg/kg oral)	Inhibitory per cent, carrageenan-induced edema, 2 hrs. ([1]; Table 6, 100 mg/kg oral)	Inhibitory per cent, carrageenan-induced edema, 3 hrs. ([1]; Table 6, 100 mg/kg oral)	Inhibitory per cent, carrageenan-induced edema, 4 hrs. ([1]; Table 6, 100 mg/kg oral)	Inhibitory per cent, carrageenan-induced edema, 5 hrs. ([1]; Table 6, 100 mg/kg oral)	responders at 500 mg/kg ([2]; Table 2, 500 mg/kg, oral, mice)	responders at 500 mg/kg ([3]; Table 2, 500 mg/kg, oral, mice)	responders at 500 mg/kg ([4]; Table 2, 500 mg/kg, oral, mice)	responders at 500 mg/kg ([5]; Table 2, 500 mg/kg, oral, mice)	responders at 500 mg/kg ([6]; Table 2, 500 mg/kg, oral, mice)	responders at 500 mg/kg ([7]; Table 2, 500 mg/kg, oral, mice)	other results
CCc1ccccc1CC1CNC(=O)O1 (stereo not shown) [Compound VI, 5-(o-ethylbenzyl)-2-oxazolidone]	27.8 per cent	36.3 per cent	53.6 per cent	28.9 per cent	22.0 per cent	60%	10%	40%	10%	50%	0%	Inhibitory per cent, carrageenan-induced edema, 6 hrs. ([1]; Table 6, 100 mg/kg oral): 17.4 per cent
C=CCOc1ccccc1CC1CNC(=O)O1 (stereo not shown) [Compound X, 5-(o-allyloxybenzyl)-2-oxazolidone]	–	–	–	–	–	80%	30%	40%	40%	40%	0%	–
O=C1NCC(Cc2ccc(F)cc2)O1 (stereo not shown) [Compound XI, 5-(p-fluorobenzyl)-2-oxazolidone]	–	–	–	–	–	100%	10%	90%	60%	80%	0%	Inhibitory per cent, carrageenan-induced edema, 1 hr ([1]; Table 6, 200 mg/kg oral): 38.3 per cent; Inhibitory per cent, carrageenan-induced edema, 2 hrs. ([1]; Table 6, 200 mg/kg oral): 47.5 per cent; Inhibitory per cent, carrageenan-induced edema, 3 hrs. ([1]; Table 6, 200 mg/kg oral): 44.5 per cent; Inhibitory per cent, carrageenan-induced edema, 4 hrs. ([1]; Table 6, 200 mg/kg oral): 34.4 per cent; Inhibitory per cent, carrageenan-induced edema, 5 hrs. ([1]; Table 6, 200 mg/kg oral): 9.2 per cent; Inhibitory per cent, carrageenan-induced edema, 6 hrs. ([1]; Table 6, 200 mg/kg oral): 8.9 per cent
O=C1NCC(Cc2ccccc2-c2ccccc2)O1 (stereo not shown) [Compound XIV, 5-(o-phenylbenzyl)-2-oxazolidone]	12.9 per cent	35.2 per cent	40.0 per cent	15.6 per cent	9.1 per cent	–	–	–	–	–	–	–
O=C1NCC(Cc2ccccc2Oc2ccccc2)O1 (stereo not shown) [Compound XV, 5-(o-phenoxybenzyl)-2-oxazolidone]	59.5 per cent	57.1 per cent	59.9 per cent	30.8 per cent	26.1 per cent	–	–	–	–	–	–	Inhibitory per cent, carrageenan-induced edema, 6 hrs. ([1]; Table 6, 100 mg/kg oral): 23.2 per cent
NC(=O)OCCCc1ccccc1 [GP, γ-phenylpropylcarbamate, reference compound]	–	–	–	–	–	–	–	–	–	–	–	responders at 500 mg/kg ([2]; po): 60%; responders at 500 mg/kg ([3]; po): 0%; responders at 500 mg/kg ([4]; po): 40%; responders at 500 mg/kg ([5]; po): 10%; responders at 500 mg/kg ([6]; po): 30%; responders at 500 mg/kg ([7]; po): 0%
O=C1NCC(Cc2cccc(C(F)(F)F)c2)O1 (stereo not shown) [IX, 5-(m-trifluoromethylbenzyl)-2-oxazolidone]	–	–	–	–	–	90%	0%	60%	60%	60%	0%	Inhibitory per cent, carrageenan-induced edema, 1 hr ([1]; Table 6, 200 mg/kg oral): 45.0 per cent; Inhibitory per cent, carrageenan-induced edema, 2 hrs. ([1]; Table 6, 200 mg/kg oral): 49.4 per cent; Inhibitory per cent, carrageenan-induced edema, 3 hrs. ([1]; Table 6, 200 mg/kg oral): 20.8 per cent; Inhibitory per cent, carrageenan-induced edema, 4 hrs. ([1]; Table 6, 200 mg/kg oral): 11.3 per cent; Inhibitory per cent, carrageenan-induced edema, 5 hrs. ([1]; Table 6, 200 mg/kg oral): 14.5 per cent; Inhibitory per cent, carrageenan-induced edema, 6 hrs. ([1]; Table 6, 200 mg/kg oral): 11.5 per cent
Cc1ccccc1OCC(O)CO (stereo not shown) [Mephenesin, reference compound]	–	–	–	–	–	80%	20%	40%	20%	60%	0%	ED50 [2, 9]: 268 mg/kg; ED50 [3, 9]: 640 mg/kg; ED50 [4, 9]: 460 mg/kg; ED50 [5, 9]: 420 mg/kg; ED50 [6, 9]: 470 mg/kg; ED50 [7, 9]: 680 mg/kg
CCCCC1C(=O)N(c2ccccc2)N(c2ccccc2)C1=O [Phenylbutazone, reference compound]	59.1 per cent	54.6 per cent	59.7 per cent	68.2 per cent	63.4 per cent	–	–	–	–	–	–	Inhibitory per cent, carrageenan-induced edema, 3 hrs. ([1]; Table 5, 200 mg/kg oral): 76.6 per cent; Inhibitory per cent, carrageenan-induced edema, 6 hrs. ([1]; Table 5, 200 mg/kg oral): 45.1 per cent; Inhibitory per cent, carrageenan-induced edema, 6 hrs. ([1]; Table 6, 100 mg/kg oral): 52.6 per cent
CCc1ccc(CC2CNC(=O)O2)cc1 (stereo not shown) [VII, 5-(p-ethylbenzyl)-2-oxazolidone]	–	–	–	–	–	80%	0%	40%	0%	40%	0%	–
O=C1NCC(Cc2ccccc2C(F)(F)F)O1 (stereo not shown) [VIII, 5-(o-trifluoromethylbenzyl)-2-oxazolidone]	–	–	–	–	–	90%	10%	40%	10%	40%	0%	Inhibitory per cent, carrageenan-induced edema, 1 hr ([1]; Table 6, 200 mg/kg oral): 21.7 per cent; Inhibitory per cent, carrageenan-induced edema, 2 hrs. ([1]; Table 6, 200 mg/kg oral): 49.7 per cent; Inhibitory per cent, carrageenan-induced edema, 3 hrs. ([1]; Table 6, 200 mg/kg oral): 27.4 per cent; Inhibitory per cent, carrageenan-induced edema, 4 hrs. ([1]; Table 6, 200 mg/kg oral): 35.6 per cent; Inhibitory per cent, carrageenan-induced edema, 5 hrs. ([1]; Table 6, 200 mg/kg oral): 9.2 per cent; Inhibitory per cent, carrageenan-induced edema, 6 hrs. ([1]; Table 6, 200 mg/kg oral): 0.5 per cent; Pain threshold Increase Ratio [8]: 1.28; Pain threshold, Mean ± SE, 30 min [8]: 62.0 ± 4.6 mmHg; Pain threshold, Mean ± SE, 60 min [8]: 60.2 ± 3.0 mmHg; Pain threshold, Mean ± SE, 90 min [8]: 57.5 ± 3.2 mmHg; Pain threshold, Mean ± SE, 120 min [8]: 52.9 ± 2.0 mmHg
O=C1NCC(Cc2ccccc2Br)O1 (stereo not shown) [XII, 5-(o-bromobenzyl)-2-oxazolidone]	–	–	–	–	–	100%	0%	60%	20%	80%	0%	Pain threshold Increase Ratio [8]: 1.24; Pain threshold, Mean ± SE, 30 min [8]: 59.6 ± 3.4 mmHg; Pain threshold, Mean ± SE, 60 min [8]: 59.4 ± 3.7 mmHg; Pain threshold, Mean ± SE, 90 min [8]: 57.5 ± 1.9 mmHg; Pain threshold, Mean ± SE, 120 min [8]: 52.7 ± 2.1 mmHg
O=C1NCC(Cc2ccccc2F)O1 (stereo not shown) [XIII, 5-(o-fluorobenzyl)-2-oxazolidone]	–	–	–	–	–	90%	20%	70%	0%	50%	10%	Pain threshold Increase Ratio [8]: 1.13; Pain threshold, Mean ± SE, 30 min [8]: 52.1 ± 3.4 mmHg; Pain threshold, Mean ± SE, 60 min [8]: 53.7 ± 2.6 mmHg; Pain threshold, Mean ± SE, 90 min [8]: 50.4 ± 2.8 mmHg; Pain threshold, Mean ± SE, 120 min [8]: 47.3 ± 1.8 mmHg
